Numbers after ± are expanded uncertainties.
Test: xn = mol fraction of the nth substance listed
Conditions: 98.93 kPa, Liquid

OCCCO [propan-1,3-diol] + O
mass density [kg/m3]
Conditions | 283.15 K | 288.15 K | 293.15 K | 298.15 K | 303.15 K | 308.15 K
x1 = 0.002 | 1000.12 ± 1.3 | 999.49 ± 1.3 | 998.61 ± 1.2 | 997.63 ± 1.3 | 996.05 ± 1.3 | 994.51 ± 1.4
x1 = 0.005 | 1000.99 ± 1.3 | 1000.34 ± 1.3 | 999.44 ± 1.2 | 998.44 ± 1.3 | 996.84 ± 1.3 | 995.27 ± 1.4
x1 = 0.01 | 1002.44 ± 1.3 | 1001.75 ± 1.3 | 1000.81 ± 1.2 | 999.76 ± 1.3 | 998.14 ± 1.3 | 996.53 ± 1.4
x1 = 0.019 | 1005.28 ± 1.3 | 1004.53 ± 1.3 | 1003.5 ± 1.2 | 1002.37 ± 1.3 | 1000.71 ± 1.4 | 999 ± 1.4
x1 = 0.03 | 1008.07 ± 1.3 | 1007.24 ± 1.3 | 1006.13 ± 1.2 | 1004.91 ± 1.3 | 1003.2 ± 1.4 | 1001.41 ± 1.4
x1 = 0.04 | 1010.8 ± 1.4 | 1009.9 ± 1.3 | 1008.71 ± 1.2 | 1007.39 ± 1.3 | 1005.63 ± 1.4 | 1003.75 ± 1.4
x1 = 0.05 | 1013.46 ± 1.4 | 1012.49 ± 1.3 | 1011.23 ± 1.2 | 1009.82 ± 1.3 | 1008 ± 1.4 | 1006.03 ± 1.4
x1 = 0.065 | 1017.32 ± 1.4 | 1016.24 ± 1.3 | 1014.85 ± 1.2 | 1013.31 ± 1.3 | 1011.4 ± 1.4 | 1009.3 ± 1.4
x1 = 0.08 | 1021.01 ± 1.4 | 1019.75 ± 1.3 | 1018.24 ± 1.3 | 1016.57 ± 1.3 | 1014.57 ± 1.4 | 1012.35 ± 1.4
x1 = 0.1 | 1025.57 ± 1.4 | 1024.07 ± 1.3 | 1022.38 ± 1.3 | 1020.58 ± 1.3 | 1018.45 ± 1.4 | 1016.06 ± 1.5
x1 = 0.125 | 1030.69 ± 1.4 | 1028.92 ± 1.3 | 1027.01 ± 1.3 | 1025.02 ± 1.4 | 1022.73 ± 1.4 | 1020.19 ± 1.5
x1 = 0.1526 | 1035.61 ± 1.4 | 1033.62 ± 1.4 | 1031.48 ± 1.3 | 1029.18 ± 1.4 | 1026.8 ± 1.4 | 1024.09 ± 1.5
x1 = 0.17 | 1038.35 ± 1.4 | 1036.24 ± 1.4 | 1033.94 ± 1.3 | 1031.44 ± 1.4 | 1029.04 ± 1.4 | 1026.23 ± 1.5
x1 = 0.18 | 1039.8 ± 1.4 | 1037.62 ± 1.4 | 1035.24 ± 1.3 | 1032.61 ± 1.4 | 1030.2 ± 1.4 | 1027.36 ± 1.5
x1 = 0.2 | 1042.35 ± 1.4 | 1040.04 ± 1.4 | 1037.56 ± 1.3 | 1034.66 ± 1.4 | 1032.25 ± 1.4 | 1029.35 ± 1.5

CC(O)CO (stereo not given) [1,2-propanediol] + O
mass density [kg/m3]
Conditions | 283.15 K | 288.15 K | 293.15 K | 298.15 K | 303.15 K | 308.15 K
x1 = 0.002 | 1000.28 ± 1.3 | 999.66 ± 1.3 | 998.73 ± 1.2 | 997.56 ± 1.3 | 996.13 ± 1.3 | 994.48 ± 1.4
x1 = 0.005 | 1001.15 ± 1.3 | 1000.5 ± 1.3 | 999.55 ± 1.2 | 998.32 ± 1.3 | 996.87 ± 1.3 | 995.17 ± 1.4
x1 = 0.01 | 1002.65 ± 1.3 | 1001.93 ± 1.3 | 1000.93 ± 1.2 | 999.63 ± 1.3 | 998.12 ± 1.3 | 996.34 ± 1.4
x1 = 0.019 | 1005.45 ± 1.3 | 1004.9 ± 1.3 | 1003.81 ± 1.2 | 1002.37 ± 1.3 | 1000.73 ± 1.4 | 998.77 ± 1.4
x1 = 0.03 | 1008.94 ± 1.3 | 1007.94 ± 1.3 | 1006.74 ± 1.2 | 1005.17 ± 1.3 | 1003.41 ± 1.4 | 1001.32 ± 1.4
x1 = 0.04 | 1012.38 ± 1.4 | 1011.16 ± 1.3 | 1009.69 ± 1.2 | 1008.04 ± 1.3 | 1006.07 ± 1.4 | 1003.85 ± 1.4
x1 = 0.05 | 1015.77 ± 1.4 | 1014.38 ± 1.3 | 1012.66 ± 1.2 | 1010.8 ± 1.3 | 1008.65 ± 1.4 | 1006.42 ± 1.4
x1 = 0.065 | 1020.67 ± 1.4 | 1018.96 ± 1.3 | 1016.94 ± 1.3 | 1014.74 ± 1.3 | 1012.36 ± 1.4 | 1010.15 ± 1.4
x1 = 0.08 | 1025.18 ± 1.4 | 1023.18 ± 1.3 | 1020.8 ± 1.3 | 1018.36 ± 1.3 | 1015.78 ± 1.4 | 1013.54 ± 1.4
x1 = 0.1 | 1030.57 ± 1.4 | 1027.89 ± 1.4 | 1025.18 ± 1.3 | 1022.6 ± 1.4 | 1019.88 ± 1.4 | 1017.51 ± 1.5
x1 = 0.125 | 1035.97 ± 1.4 | 1032.58 ± 1.4 | 1029.58 ± 1.3 | 1027.01 ± 1.4 | 1024.14 ± 1.4 | 1021.52 ± 1.5
x1 = 0.1526 | 1039.91 ± 1.5 | 1036.53 ± 1.4 | 1033.34 ± 1.3 | 1030.86 ± 1.4 | 1028.08 ± 1.4 | 1024.73 ± 1.5
x1 = 0.17 | 1041.79 ± 1.5 | 1038.5 ± 1.4 | 1035.11 ± 1.3 | 1032.86 ± 1.4 | 1030.11 ± 1.4 | 1026.33 ± 1.5
x1 = 0.18 | 1042.67 ± 1.5 | 1039.47 ± 1.4 | 1035.98 ± 1.3 | 1033.9 ± 1.4 | 1031.1 ± 1.5 | 1027.06 ± 1.6
x1 = 0.2 | 1043.92 ± 1.5 | 1041 ± 1.4 | 1037.19 ± 1.3 | 1035.6 ± 1.4 | 1032.73 ± 1.5 | 1027.98 ± 1.6

OCC(O)CO [glycerol] + O
mass density [kg/m3]
Conditions | 283.15 K | 288.15 K | 293.15 K | 298.15 K | 303.15 K | 308.15 K
x1 = 0.002 | 1002.15 ± 1.3 | 1001.53 ± 1.3 | 1000.6 ± 1.2 | 999.43 ± 1.3 | 998.01 ± 1.3 | 996.37 ± 1.4
x1 = 0.005 | 1005.76 ± 1.3 | 1005.11 ± 1.3 | 1004.14 ± 1.2 | 1002.93 ± 1.3 | 1001.48 ± 1.4 | 999.81 ± 1.4
x1 = 0.01 | 1011.64 ± 1.4 | 1010.93 ± 1.3 | 1009.9 ± 1.2 | 1008.63 ± 1.3 | 1007.12 ± 1.4 | 1005.42 ± 1.4
x1 = 0.019 | 1022.85 ± 1.4 | 1022.06 ± 1.3 | 1020.89 ± 1.2 | 1019.51 ± 1.3 | 1017.89 ± 1.4 | 1016.12 ± 1.5
x1 = 0.03 | 1033.4 ± 1.4 | 1032.52 ± 1.3 | 1031.22 ± 1.3 | 1029.73 ± 1.3 | 1028.03 ± 1.4 | 1026.18 ± 1.4
x1 = 0.04 | 1043.36 ± 1.4 | 1042.38 ± 1.3 | 1040.97 ± 1.3 | 1039.37 ± 1.4 | 1037.58 ± 1.4 | 1035.66 ± 1.5
x1 = 0.05 | 1052.76 ± 1.4 | 1051.69 ± 1.4 | 1050.15 ± 1.3 | 1048.46 ± 1.4 | 1046.58 ± 1.4 | 1044.59 ± 1.5
x1 = 0.065 | 1065.9 ± 1.4 | 1064.68 ± 1.4 | 1062.99 ± 1.3 | 1061.17 ± 1.4 | 1059.16 ± 1.4 | 1057.08 ± 1.5
x1 = 0.08 | 1078.01 ± 1.5 | 1076.64 ± 1.4 | 1074.81 ± 1.4 | 1072.85 ± 1.4 | 1070.74 ± 1.5 | 1068.56 ± 1.5
x1 = 0.1 | 1092.7 ± 1.5 | 1091.17 ± 1.4 | 1089.16 ± 1.4 | 1087.05 ± 1.4 | 1084.79 ± 1.5 | 1082.51 ± 1.6
x1 = 0.125 | 1109.07 ± 1.5 | 1107.35 ± 1.5 | 1105.15 ± 1.4 | 1102.86 ± 1.5 | 1100.45 ± 1.5 | 1098.03 ± 1.6
x1 = 0.1526 | 1124.96 ± 1.6 | 1123.05 ± 1.5 | 1120.68 ± 1.5 | 1118.23 ± 1.5 | 1115.66 ± 1.6 | 1113.11 ± 1.6
x1 = 0.17 | 1133.96 ± 1.6 | 1131.96 ± 1.5 | 1129.5 ± 1.5 | 1126.96 ± 1.5 | 1124.3 ± 1.6 | 1121.66 ± 1.6
x1 = 0.18 | 1138.83 ± 1.6 | 1136.77 ± 1.5 | 1134.27 ± 1.5 | 1131.68 ± 1.5 | 1128.97 ± 1.6 | 1126.28 ± 1.7
x1 = 0.2 | 1147.94 ± 1.6 | 1145.78 ± 1.6 | 1143.22 ± 1.5 | 1140.54 ± 1.6 | 1137.73 ± 1.6 | 1134.94 ± 1.7

CCCO [propan-1-ol] + O
mass density [kg/m3]
Conditions | 283.15 K | 288.15 K | 293.15 K | 298.15 K | 303.15 K | 308.15 K
x1 = 0.002 | 998.53 ± 1.3 | 997.69 ± 1.3 | 996.58 ± 1.2 | 995.4 ± 1.3 | 994.2 ± 1.3 | 992.72 ± 1.4
x1 = 0.005 | 996.91 ± 1.3 | 996.06 ± 1.3 | 994.95 ± 1.2 | 993.76 ± 1.3 | 992.54 ± 1.3 | 991.05 ± 1.4
x1 = 0.009 | 994.87 ± 1.3 | 994 ± 1.3 | 992.87 ± 1.2 | 991.66 ± 1.3 | 990.43 ± 1.3 | 988.92 ± 1.4
x1 = 0.01 | 994.38 ± 1.3 | 993.49 ± 1.3 | 992.36 ± 1.2 | 991.14 ± 1.3 | 989.92 ± 1.3 | 988.4 ± 1.4
x1 = 0.02 | 989.99 ± 1.3 | 988.99 ± 1.2 | 987.82 ± 1.2 | 986.54 ± 1.3 | 985.27 ± 1.3 | 983.68 ± 1.4
x1 = 0.03 | 986.29 ± 1.3 | 985.17 ± 1.2 | 983.91 ± 1.2 | 982.56 ± 1.2 | 981.2 ± 1.3 | 979.57 ± 1.4
x1 = 0.05 | 979.96 ± 1.3 | 978.27 ± 1.2 | 977.1 ± 1.2 | 975.49 ± 1.2 | 973.96 ± 1.3 | 972.3 ± 1.4
x1 = 0.065 | 975.01 ± 1.3 | 972.88 ± 1.2 | 971.86 ± 1.2 | 969.94 ± 1.2 | 968.38 ± 1.3 | 966.41 ± 1.4
x1 = 0.08 | 969.18 ± 1.3 | 966.99 ± 1.2 | 965.87 ± 1.2 | 963.72 ± 1.2 | 961.92 ± 1.3 | 959.82 ± 1.4
x1 = 0.1 | 960.42 ± 1.3 | 958.48 ± 1.2 | 957.26 ± 1.2 | 954.91 ± 1.2 | 952.93 ± 1.3 | 950.64 ± 1.3
x1 = 0.13 | 947.97 ± 1.3 | 946 ± 1.2 | 944.52 ± 1.2 | 941.96 ± 1.2 | 939.8 ± 1.3 | 937.47 ± 1.3
x1 = 0.15 | 940.47 ± 1.3 | 938.48 ± 1.2 | 936.78 ± 1.1 | 934.12 ± 1.2 | 931.81 ± 1.3 | 929.47 ± 1.3
x1 = 0.17 | 933.5 ± 1.3 | 931.45 ± 1.2 | 929.49 ± 1.1 | 926.68 ± 1.2 | 924.32 ± 1.2 | 922.05 ± 1.3
x1 = 0.1856 | 928.41 ± 1.2 | 926.35 ± 1.2 | 924.19 ± 1.1 | 921.23 ± 1.2 | 918.84 ± 1.2 | 916.61 ± 1.3
x1 = 0.2 | 923.98 ± 1.2 | 921.89 ± 1.2 | 919.56 ± 1.1 | 916.46 ± 1.2 | 914.04 ± 1.2 | 911.83 ± 1.3
